EC50 data for one molecule are collected here from patent US10801076B2, “Influenza A virus variants” (Vertex Pharmaceuticals Incorporated, priority 2014, dated 2020).

Molecules are shown by their SMILES.

This assay deals with A/Wisconsin/67/2005-p1. As to the kind of experiment: microbe, parasite or virus in culture. It counts as cell-based, influenza A virus (H3N2). The following applies: Influenza A virus, MDCK, 72 h, read-out: Sensitivity to Compound 1 (EC50).

A word on the EC50: it is the concentration at which the effect is half-maximal. For `O=C(O)[C@H]1C2CCC(CC2)[C@@H]1Nc1nc(-c2c[nH]c3ncc(F)cc23)ncc1F` [Compound 1], the EC50 is 2 nM.
